Reference: patent US11873291B2, “Quinoline cGAS antagonist compounds” (ImmuneSensor Therapeutics, Inc., priority 2020, dated 2024)
Like-named read-outs stand apart in the source and are kept apart here.

Assays:
[1] = test system: cGAS activity in Reporter THP1 cell line; assay: Cellular assay to measure cGAS activity: ISRE-Gaussia luciferase reporter THP1 cells transfected with ISD; assay type: cell-based; details: Homo sapiens
Outline: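 THP1 ISRE-Gaussia luciferase reporter cells (0.3×10^6/well) pre-incubated 5 min with compound serial dilutions, then lipofectamine-transfected with 2 μg/mL ISD (45 bp DNA) or mock. Secreted luciferase read 16 h later with 1 μM coelenterazine at pH 6.5; IC50 from fold increase over mock. Specificity counter-screen used 2 μg/mL poly(I:C) or Sendai virus 50 Unit/mL.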

[2] = molecular target: T1, recombinant human cGAS (aa147-522) (Homo sapiens, UniProt Q8N884); assay: In vitro inhibition assay of cGAS activity (ATP consumption, KinaseGlo Max); assay type: biochemical
T1 construct: recombinant human cGAS (aa147-522); His6-SUMO (cleaved yes); made in house; host or cells: E. coli BL21/pLys
T1 sequence (Q8N884 147-522): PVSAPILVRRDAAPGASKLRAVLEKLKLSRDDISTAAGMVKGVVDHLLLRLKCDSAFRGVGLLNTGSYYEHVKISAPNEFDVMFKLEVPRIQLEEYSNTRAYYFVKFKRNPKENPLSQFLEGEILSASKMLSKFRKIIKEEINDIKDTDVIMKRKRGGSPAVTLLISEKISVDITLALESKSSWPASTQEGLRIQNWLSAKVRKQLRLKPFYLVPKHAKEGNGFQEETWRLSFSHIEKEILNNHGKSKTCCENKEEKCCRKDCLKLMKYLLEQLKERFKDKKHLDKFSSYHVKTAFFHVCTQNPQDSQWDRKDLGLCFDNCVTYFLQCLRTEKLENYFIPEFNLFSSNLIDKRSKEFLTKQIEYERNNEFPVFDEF
Outline: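 IC50 came from plotting % ATP consumption against log compound concentration, with leftover ATP detected by KinaseGlo Max chemiluminescence. Reactions ran 20 min at 37 °C with 1.5 μg/mL human cGAS (aa147-522), 6.6 μM ATP, 0.1 mM GTP and 0.01 mg/mL DNA at pH 7.5.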

[3] = THP-1, Table 4, Gaussia luciferase
[4] = Table 3, read-out: cGAS Inhibition Results IC50
[5] = THP-1, untitled table after Table 4 (continuation)
[6] = Table 2, read-out: cGAS Inhibition Results IC50

Row | Compound | IC50 [1, 3] | IC50 [2, 4] | IC50 [1, 5] | IC50 [2, 6]
1 | COC(=O)[C@H]1CCCN1C(=O)C[C@@H]1CCCN1c1cc(-n2ccnc2)c2ccc(Cl)c(Cl)c2n1 [I-532] | 2 to 10 µM | 2 to 30 µM |  | 
2 | CCOC(=O)[C@@H]1CCCN1c1cc(-n2ccnc2)c2ccc(Cl)c(Cl)c2n1 [I-594] | 2 to 10 µM | 2 to 30 µM |  | 
3 | CCCCOC(=O)[C@@H]1[C@@H](O)CCN1c1cc(-n2ccnc2)c2ccc(Cl)c(Cl)c2n1 [I-601] | < 2 µM | 2 to 30 µM |  | 
4 | O=C(O)CCCCCCNc1cc(-n2ccnc2)c2ccc(Cl)c(Cl)c2n1 [I-831] |  | < 2 µM | 2 to 10 µM | 
5 | O=C(O)CCOC[C@@H]1[C@H]2C[C@H]2CN1c1cc(-n2ccnc2)c2ccc(Cl)c(Cl)c2n1 [I-710] | 2 to 10 µM | < 2 µM |  | 
6 | COC(=O)CCOCC[C@@H]1CCCN1c1cc(-n2ccnc2)c2ccc(Cl)c(Cl)c2n1 [I-673] | < 2 µM | 2 to 30 µM |  | 
7 | O=C(O)CCCC[C@@H]1CCCN1c1cc(-n2ccnc2)c2ccc(Cl)c(Cl)c2n1 [I-683] | < 2 µM | < 2 µM |  | 
8 | O=C(O)CCOC[C@@H]1C[C@@H](OCc2ccccc2)CN1c1cc(-n2ccnc2)c2ccc(Cl)c(Cl)c2n1 [I-712] | < 2 µM | < 2 µM |  | 
9 | O=C(O)CCOCC[C@@H]1CCCN1c1cc(-n2ccnc2)c2ccc(Cl)c(Cl)c2n1 [I-672] | < 2 µM | < 2 µM |  | 
10 | O=C(O)COC[C@H]1CCCN(c2cc(-n3ccnc3)c3ccc(Cl)c(Cl)c3n2)C1 [I-743] | < 2 µM | < 2 µM |  | 
11 | O=C1C[C@@H]2[C@@H](CCN2c2cc(-n3ccnc3)c3ccc(Cl)c(Cl)c3n2)O1 [I-774, (3aR,6aR)-4-(7,8-dichloro-4-(1H-imidazol-1-yl)quinolin-2-yl)hexahydro-2H-furo[3,2-b]pyrrol-2-one] |  | < 2 µM | 2 to 10 µM | 
12 | O=C(O)CCOC[C@@H]1CCCN1c1cc(-n2ccnc2)c2ccc(Cl)c(Cl)c2n1 [I-664, (S)-3-((1-(7,8-dichloro-4-(1H-imidazol-1-yl)quinolin-2-yl)pyrrolidin-2-yl)methoxy)propanoic acid] | < 2 µM | < 2 µM |  | 
13 | O=C(O)CCOCC1CCCCN(c2cc(-n3ccnc3)c3ccc(Cl)c(Cl)c3n2)C1 (stereo not shown) [I-866] |  | < 2 µM | 2 to 10 µM | 
14 | O=C(O)CCOC[C@H]1CCCN1c1cc(-n2ccnc2)c2ccc(Cl)c(Cl)c2n1 [I-674] | 2 to 10 µM | < 2 µM |  | 
15 | COC(=O)[C@@H]1[C@@H](O)CCN1c1cc(-c2cn[nH]c2)c2ccc(Cl)c(Cl)c2n1 [I-598] | < 2 µM | 2 to 30 µM |  | 
16 | NS(=O)(=O)C1CCCN(c2cc(-n3ccnc3)c3ccc(Cl)c(Cl)c3n2)C1 (stereo not shown) [I-116] | 2 to 10 µM |  |  | < 2 µM
17 | CC(COC[C@@H]1CCCN1c1cc(-n2ccnc2)c2ccc(Cl)c(Cl)c2n1)C(=O)O (stereo partly shown) [I-719] | < 2 µM | < 2 µM |  | 
18 | C[C@@H]1C[C@@H](COCCC(=O)O)N(c2cc(-n3ccnc3)c3ccc(Cl)c(Cl)c3n2)C1 [I-795] |  | < 2 µM | < 2 µM | 
19 | O=C(O)c1cnn(CC[C@@H]2CCCN2c2cc(-n3ccnc3)c3ccc(Cl)c(Cl)c3n2)c1 [I-730] | 2 to 10 µM | < 2 µM |  | 
20 | COC(=O)C(F)COC[C@@H]1CCCN1c1cc(-n2ccnc2)c2ccc(Cl)c(Cl)c2n1 (stereo partly shown) [I-700] | 2 to 10 µM | < 2 µM |  | 
21 | O=C(O)CCOCCC[C@@H]1CCCN1c1cc(-n2ccnc2)c2ccc(Cl)c(Cl)c2n1 [I-677] | < 2 µM | < 2 µM |  | 
22 | O=C(O)/C=C/C[C@@H]1CCCN1c1cc(-n2ccnc2)c2ccc(Cl)c(Cl)c2n1 [I-685] | < 2 µM | < 2 µM |  | 
23 | COC(=O)COCC[C@@H]1CCCN1c1cc(-n2ccnc2)c2ccc(Cl)c(Cl)c2n1 [I-669] | < 2 µM | 2 to 30 µM |  | 
24 | O=C(O)[C@@H]1C[C@@H](F)CN1c1cc(-n2ccnc2)c2ccc(Cl)c(Cl)c2n1 [I-322] | > 10 µM |  |  | < 2 µM

Row | Compound | IC50 [1, 3] | IC50 [2, 4] | IC50 [1, 5] | IC50 [2, 6]
25 | O=C(O)c1cnn(CCNc2cc(-n3ccnc3)c3ccc(Cl)c(Cl)c3n2)c1 [I-889] |  | < 2 µM | > 10 µM | 
26 | O=C(O)C[C@@H]1[C@@H](O)CCN1c1cc(-n2ccnc2)c2ccc(Cl)c(Cl)c2n1 [I-785, 2-((2R,3S)-1-(7,8-dichloro-4-(1H-imidazol-1-yl)quinolin-2-yl)-3-hydroxypyrrolidin-2-yl)acetic acid] |  | < 2 µM | > 10 µM | 
27 | NC(=O)[C@@H]1CCCN1c1cc(-n2ccnc2)c2ccc(Cl)c(Cl)c2n1 [I-448] | > 10 µM |  |  | < 2 µM
28 | COc1ccc2c(-n3ccnc3)cc(N3CCC[C@H]3COCCC(=O)O)nc2c1Cl [I-856] |  | < 2 µM | 2 to 10 µM | 
29 | O=C(O)CCOCC1CC(F)CN(c2cc(-n3ccnc3)c3ccc(Cl)c(Cl)c3n2)C1 (stereo not shown) [I-749] | < 2 µM | < 2 µM |  | 
30 | O=C(O)COC[C@@H]1CN(c2cc(-n3ccnc3)c3ccc(Cl)c(Cl)c3n2)CCO1 [I-742] | > 10 µM | < 2 µM |  | 
31 | CN(CCOCCC(=O)O)c1cc(-n2ccnc2)c2ccc(Cl)c(Cl)c2n1 [I-694] | < 2 µM | < 2 µM |  | 
32 | O=C(O)[C@@H]1C[C@@H]2C[C@@H]2N1c1cc(-n2ccnc2)c2ccc(Cl)c(Cl)c2n1 [I-469] | < 2 µM | < 2 µM |  | 
33 | O=C(O)Cc1ccccc1OC[C@@H]1CCCN1c1cc(-n2ccnc2)c2ccc(Cl)c(Cl)c2n1 [I-734] | < 2 µM | < 2 µM |  | 
34 | O=C(O)COC[C@@H]1C[C@H](F)CN1c1cc(-n2ccnc2)c2ccc(Cl)c(Cl)c2n1 [I-706] | < 2 µM | < 2 µM |  | 
35 | O=C(O)CCNC[C@@H]1CCCN1c1cc(-n2ccnc2)c2ccc(Cl)c(Cl)c2n1 [I-756, (5)-3-(((1-(7,8-dichloro-4-(1H-imidazol-1-yl)quinolin-2-yl)pyrrolidin-2-yl)methyl)amino)propanoic acid] |  | 2 to 30 µM | > 10 µM | 
36 | COc1c(Cl)ccc2c(-n3ccnc3)cc(N3CCC[C@H]3COCCC(=O)O)nc12 [I-860] |  | < 2 µM | > 10 µM | 
37 | O=C(O)CCOC[C@H](O)[C@@H]1CCCN1c1cc(-n2ccnc2)c2ccc(Cl)c(Cl)c2n1 [I-724, 3-((R)-2-((S)-1-(7,8-dichloro-4-(1H-imidazol-1-yl)quinolin-2-yl)pyrrolidin-2-yl)-2-hydroxyethoxy)propanoic acid] | 2 to 10 µM | < 2 µM |  | 
38 | COC(=O)CCN(C)C[C@@H]1CCCN1c1cc(-n2ccnc2)c2ccc(Cl)c(Cl)c2n1 [I-755, methyl (S)-3-(((1-(7,8-dichloro-4-(1H-imidazol-1-yl)quinolin-2-yl)pyrrolidin-2-yl)methyl)(methyl)amino)propanoate] |  | > 30 µM | > 10 µM | 
39 | O=C(O)COC[C@@H]1CCCN1c1cc(-n2ccnc2)c2ccc(Cl)c(Cl)c2n1 [I-666, (S)-2-((1-(7,8-dichloro-4-(1H-imidazol-1-yl)quinolin-2-yl)pyrrolidin-2-yl)methoxy)acetic acid] | < 2 µM | < 2 µM |  | 
40 | O=C(OC(C(F)(F)F)C(F)(F)F)[C@@H]1[C@@H](O)CCN1c1cc(-n2ccnc2)c2ccc(Cl)c(Cl)c2n1 [I-663] | < 2 µM | < 2 µM |  | 
41 | O=C(O)CCOC[C@H]1CC2CCC1N2c1cc(-n2ccnc2)c2ccc(Cl)c(Cl)c2n1 (stereo partly shown) [I-811] |  | < 2 µM | < 2 µM | 
42 | COC(=O)C1C(C)CCN1c1cc(-n2ccnc2)c2ccc(Cl)c(Cl)c2n1 (stereo not shown) [I-578] | 2 to 10 µM | 2 to 30 µM |  | 
43 | O=C(COC[C@@H]1CCCN1c1cc(-n2ccnc2)c2ccc(Cl)c(Cl)c2n1)NO [I-761] |  | < 2 µM | > 10 µM | 
44 | O=C(O)CCOCc1cccc(-c2cc(-n3ccnc3)c3ccc(Cl)c(Cl)c3n2)c1 [I-840, 3-((3-(7,8-dichloro-4-(1H-imidazol-1-yl)quinolin-2-yl)benzyl)oxy)propanoic acid] |  | < 2 µM | < 2 µM | 
45 | COC(=O)[C@@H]1[C@@H](O)CCN1c1cc(-n2ccnc2)c2ccc(Cl)c(Br)c2n1 [I-872] |  | 2 to 30 µM | < 2 µM | 
46 | O=C(O)CCCCCNc1cc(-c2cn[nH]c2)c2ccc(Cl)c(Cl)c2n1 [I-830] |  | < 2 µM | < 2 µM | 
47 | O=C(O)CCOCC(Cc1ccccc1)Nc1cc(-n2ccnc2)c2ccc(Cl)c(Cl)c2n1 (stereo not shown) [I-695] | 2 to 10 µM | 2 to 30 µM |  | 
